From ChEMBL document CHEMBL3813591, “Tasiamide F, a potent inhibitor of cathepsins D and E from a marine cyanobacterium” (Bioorg Med Chem, 2016)
pIC50: −log10 of the molar value. Starred links: 1 amine or outer side, 2 acyl side, 3 side chain; linkers in the order of their positions; H or OH if unused. Non-standard residues stand in square brackets, D forms with d. Residues, ends and D or L forms follow the SMILES beside them. Ahppa(3S,4S) = O=C(C[C@H](O)[C@H](Cc1ccccc1)N[*:1])[*:2]; dNMeF = CN[C@H](Cc1ccccc1)C(=O)O; NMeQ = CN[C@@H](CCC(N)=O)C(=O)O; Lac = C[C@H](O)C(=O)O

Experiments:
Homo sapiens [1] = species on record: Homo sapiens; experiment: Selectivity ratio of IC50 for human liver cathepsin D to IC50 for human recombinant cathepsin E
Beta-secretase 1 = Beta-secretase 1 (Homo sapiens, UniProt P56817); experiment: Inhibition of BACE1 (unknown origin) using peptide substrate by time-course measurement-based fluorescence analysis
Chain of Beta-secretase 1 (P56817 whole entry): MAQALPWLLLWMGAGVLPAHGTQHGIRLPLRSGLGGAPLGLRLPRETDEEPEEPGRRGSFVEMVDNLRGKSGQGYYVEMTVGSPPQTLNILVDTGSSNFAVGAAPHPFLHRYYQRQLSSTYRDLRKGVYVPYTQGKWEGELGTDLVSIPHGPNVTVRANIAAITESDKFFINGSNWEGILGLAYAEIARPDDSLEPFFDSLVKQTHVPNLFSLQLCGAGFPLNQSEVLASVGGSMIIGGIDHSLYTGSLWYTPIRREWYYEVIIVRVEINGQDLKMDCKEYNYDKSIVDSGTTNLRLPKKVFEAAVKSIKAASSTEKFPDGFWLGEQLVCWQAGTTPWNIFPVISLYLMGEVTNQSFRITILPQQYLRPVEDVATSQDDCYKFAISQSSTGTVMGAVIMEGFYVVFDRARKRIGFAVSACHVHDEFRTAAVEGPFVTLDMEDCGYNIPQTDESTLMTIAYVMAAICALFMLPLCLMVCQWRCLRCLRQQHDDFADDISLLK

Cathepsin E = target: T1, Cathepsin E (Homo sapiens, UniProt P14091); experiment: Inhibition of human recombinant cathepsin E using Mca-Gly-Lys-Pro-Ile-Leu-Phe-Phe-Arg-Leu-Lys-(Dnp)-D-Arg-NH2 as substrate preincubated for 15 mins followed by substrate addition measured every 5 mins for 120 mins by fluorescence analysis
T1 sequence (P14091 whole entry): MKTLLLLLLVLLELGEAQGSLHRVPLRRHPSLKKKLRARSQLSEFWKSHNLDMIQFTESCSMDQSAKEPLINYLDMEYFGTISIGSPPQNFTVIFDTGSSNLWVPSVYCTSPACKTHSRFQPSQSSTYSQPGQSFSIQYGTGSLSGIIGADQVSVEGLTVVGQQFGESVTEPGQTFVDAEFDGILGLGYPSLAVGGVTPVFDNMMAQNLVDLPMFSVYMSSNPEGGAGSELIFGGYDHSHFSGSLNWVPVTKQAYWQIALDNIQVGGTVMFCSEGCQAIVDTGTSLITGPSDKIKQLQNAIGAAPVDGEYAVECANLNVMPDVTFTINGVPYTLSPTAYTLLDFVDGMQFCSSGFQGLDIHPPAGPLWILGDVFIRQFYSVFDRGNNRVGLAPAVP

Homo sapiens [2] = species on record: Homo sapiens; experiment: Selectivity ratio of IC50 for BACE1 (unknown origin) to IC50 for human liver cathepsin D
Homo sapiens [3] = species on record: Homo sapiens; experiment: Selectivity ratio of IC50 for BACE1 (unknown origin) to IC50 for human recombinant cathepsin E
Cathepsin D = Cathepsin D (Homo sapiens, UniProt P07339); experiment: Inhibition of human liver cathepsin D using Mca-Gly-Lys-Pro-Ile-Leu-Phe-Phe-Arg-Leu-Lys-(Dnp)-D-Arg-NH2 as substrate preincubated for 15 mins followed by substrate addition measured every 5 mins for 120 mins by fluorescence analysis
Chain of Cathepsin D (P07339 65-162 limits assumed): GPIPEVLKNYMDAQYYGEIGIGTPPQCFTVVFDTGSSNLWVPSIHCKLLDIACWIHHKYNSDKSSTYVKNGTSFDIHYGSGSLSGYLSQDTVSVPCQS
Chain of Cathepsin D (P07339 169-412 limits assumed): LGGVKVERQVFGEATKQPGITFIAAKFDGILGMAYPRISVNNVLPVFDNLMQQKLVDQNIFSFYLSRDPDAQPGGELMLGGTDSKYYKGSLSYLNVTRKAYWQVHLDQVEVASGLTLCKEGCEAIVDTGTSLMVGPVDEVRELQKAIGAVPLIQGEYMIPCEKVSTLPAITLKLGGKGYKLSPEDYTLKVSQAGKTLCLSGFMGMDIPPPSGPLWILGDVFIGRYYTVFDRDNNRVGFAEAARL

In the case of `CC[C@H](C)[C@H](NC(=O)C[C@H](O)[C@H](Cc1ccccc1)NC(=O)[C@H](CCC(N)=O)N(C)C(=O)[C@@H](NC(=O)[C@H](C)O)[C@@H](C)CC)C(=O)NCC(=O)N(C)[C@H](Cc1ccccc1)C(=O)N1CCC[C@H]1C(=O)OC` (H-[Lac]I[NMeQ][Ahppa(3S,4S)]IG[dNMeF]P-OMe), the Ratio IC50 (Homo sapiens [1]) was 2.4, the pIC50 (Beta-secretase 1) was 6.16 and the pIC50 (Cathepsin E) was 7.64. It also gave a Ratio IC50 (Homo sapiens [2]) of 12, a Ratio IC50 (Homo sapiens [3]) of 30 and a pIC50 (Cathepsin D) of 7.24.
